Like-named read-outs stand apart in the source and are kept apart here.
Assays:
[1] = logP by reversed-phase HPLC (LC-MS), neutral range; format: physicochemical; details: c18 hplc, ammonium bicarbonate/acetonitrile; pH 7.8, 0,001 molar aqueous Ammoniumhydrogencarbonat / Acetonitril, C 18, 55°C
Method: (§1) Die Messung der logP Werte erfolgt gemäß EEC Directive 79/831 Annex V.A8 durch HPLC (High Performance Liquid Chromatography) an einer Phasenumkehrsäule (C 18). Temperatur: 55°C. Die Bestimmung mit der LC-MS im sauren Bereich erfolgt bei pH 2,7 mit 0,1 % wässriger Ameisensäure und Acetonitril (enthält 0,1% Ameisensäure) als Eluenten; linearer Gradient von 10% Acetonitril bis 95% Acetonitril. In der Tabelle logP (HCOOH) genannt.
Die Bestimmung mit der LC-MS im neutralen Bereich erfolgt bei pH 7.8 mit 0,001 molarer wässriger Ammoniumhydrogencarbonat-Lösung und Acetonitril als Eluenten; linearer Gradient von 10 % Acetonitril bis 95 % Acetonitril. In der Tabelle logP (neutral) genannt.
(§2) Die Eichung erfolgt mit unverzweigten Alkan-2-onen (mit 3 bis 16 Kohlenstoffatomen), deren logP-Werte bekannt sind (Bestimmung der logP-Werte anhand der Retentionszeiten durch lineare Interpolation zwischen zwei aufeinander folgenden Alkanonen).

Phaedon cochleariae = Phaedon cochleariae spray test (Chinese cabbage leaf discs, larvae); format: in vivo; details: foliar, 168 h, read-out: Wirkung
Text: (§3) Zur Herstellung einer zweckmäßigen Wirkstoffzubereitung löst man 1 Gewichtsteil Wirkstoff mit den angegebenen Gewichtsteilen Lösungsmittel und füllt mit Wasser, welches eine Emulgatorkonzentration von 1000 ppm enthält, bis zum Erreichen der gewünschten Konzentration auf. Zur Herstellung weiterer Testkonzentrationen wird mit emulgatorhaltigem Wasser verdünnt.
Chinakohlblattscheiben (Brassica pekinensis) werden mit einer Wirkstoffzubereitung der gewünschten Konzentration gespritzt und nach dem Abtrocknen mit Larven des Meerrettichblattkäfers (Phaedon cochleariae) besetzt.
Nach 7 Tagen wird die Wirkung in % bestimmt. Dabei bedeutet 100 %, dass alle Käferlarven abgetötet wurden; 0 % bedeutet, dass keine Käferlarven abgetötet wurden.

Myzus persicae = Myzus persicae spray test (Chinese cabbage leaf discs); format: in vivo; details: foliar, 144 h, Aufwandmenge 500g/ha, after 6 days, read-out: Wirkung
Text: as §3
Chinakohlblattscheiben (Brassica pekinensis), die von allen Stadien der Grünen Pfirsichblattlaus (Myzus persicae) befallen sind, werden mit einer Wirkstoffzubereitung der gewünschten Konzentration gespritzt.
Nach 6 Tagen wird die Wirkung in % bestimmt. Dabei bedeutet 100 %, dass alle Blattläuse abgetötet wurden; 0 % bedeutet, dass keine Blattläuse abgetötet wurden.

Lucilia cuprina = Lucilia cuprina test (L1 larvae on treated minced horse meat); format: in vivo; details: 48 h, Aufwandmenge 100ppm, after 2 days, read-out: Wirkung (Abtötung)
Method: (§4) Zur Herstellung einer zweckmäßigen Wirkstoffzubereitung vermischt man 10 mg Wirkstoff mit 0,5 ml Dimethylsulfoxid und verdünnt das Konzentrat mit Wasser auf die gewünschte Konzentration.
Ca. 20 L1-Larven der Australischen Schafgoldfliege (Lucilia cuprina) werden in ein Testgefäß überführt, welches gehacktes Pferdefleisch und die Wirkstoffzubereitung der gewünschten Konzentration enthält.
Nach 2 Tagen wird die Abtötung in % bestimmt. Dabei bedeutet 100 %, dass alle Larven abgetötet wurden; 0 % bedeutet, dass keine Larven abgetötet wurden.

Spodoptera frugiperda = Spodoptera frugiperda spray test (maize leaf discs, caterpillars); format: in vivo; details: foliar, 168 h, Aufwandmenge 500g/ha, after 7 days, read-out: Wirkung
Text: as §3
Maisblattscheiben (Zea mays) werden mit einer Wirkstoffzubereitung der gewünschten Konzentration gespritzt und nach dem Abtrocknen mit Raupen des Heerwurms (Spodoptera frugiperda) besetzt.
Nach 7 Tagen wird die Wirkung in % bestimmt. Dabei bedeutet 100 %, dass alle Raupen abgetötet wurden; 0 % bedeutet, dass keine Raupe abgetötet wurde.

Ctenocephalides felis [2] = assay: Ctenocephalides felis oral test (feeding on treated citrated cattle blood); format: in vivo; details: 48 h, Aufwandmenge 100ppm, after 2 days, read-out: Wirkung (Abtötung)
Method: Zwecks Herstellung einer zweckmäßigen Wirkstoffzubereitung vermischt man 10 mg Wirkstoff mit 0,5 ml Dimethylsulfoxid. Durch Verdünnen mit citriertem Rinderblut erhält man die gewünschte Konzentration.
Ca. 20 nüchterne adulte Katzenflöhe (Ctenocephalides felis) werden in eine Kammer eingesetzt, die oben und unten mit Gaze verschlossen ist. Auf die Kammer wird ein Metallzylinder gestellt, dessen Unterseite mit Parafilm verschlossen ist. Der Zylinder enthält die Blut-Wirkstoffzubereitung, die von den Flöhen durch die Parafilmmembran aufgenommen werden kann.
Nach 2 Tagen wird die Abtötung in % bestimmt. Dabei bedeutet 100 %, dass alle Flöhe abgetötet wurden; 0 % bedeutet, dass keiner der Flöhe abgetötet wurde.

Musca domestica = Musca domestica test (adult flies, treated sugar sponge); format: in vivo; details: 48 h, read-out: Wirkung (Abtötung)
Method: as §4
Gefäße, die einen Schwamm enthalten, der mit Zuckerlösung und der Wirkstoffzubereitung der gewünschten Konzentration behandelt wurde, werden mit 10 adulten Stubenfliegen (Musca domestica) besetzt.
Nach 2 Tagen wird die Abtötung in % bestimmt. Dabei bedeutet 100 %, dass alle Fliegen abgetötet wurden; 0 % bedeutet, dass keine der Fliegen abgetötet wurde.

Meloidogyne incognita = Meloidogyne incognita test (gall formation on lettuce roots); format: in vivo; details: 336 h, Aufwandmenge 20ppm, after 14 days, read-out: Wirkung (nematizide Wirkung anhand der Gallenbildung)
Text: Zur Herstellung einer zweckmäßigen Wirkstoffzubereitung vermischt man 1 Gewichtsteil Wirkstoff mit der angegebenen Menge Lösungsmittel und verdünnt das Konzentrat mit Wasser auf die gewünschte Konzentration.
Gefäße werden mit Sand, Wirkstofflösung, einer Ei-Larven-Suspension des südlichen Wurzelgallenälchens (Meloidogyne incognita) und Salatsamen gefüllt. Die Salatsamen keimen und die Pflänzchen entwickeln sich. An den Wurzeln entwickeln sich die Gallen.
Nach 14 Tagen wird die nematizide Wirkung anhand der Gallenbildung in % bestimmt. Dabei bedeutet 100 %, dass keine Gallen gefunden wurden; 0 % bedeutet, dass die Zahl der Gallen an den behandelten Pflanzen der unbehandelten Kontrolle entspricht.

Tetranychus urticae = Tetranychus urticae spray test, OP-resistant (bean leaf discs); format: in vivo; details: foliar, 144 h, read-out: Wirkung
Text: as §3
Bohnenblattscheiben (Phaseolus vulgaris), die von allen Stadien der Gemeinen Spinnmilbe (Tetranychus urticae) befallen sind, werden mit einer Wirkstoffzubereitung der gewünschten Konzentration gespritzt.
Nach 6 Tagen wird die Wirkung in % bestimmt. Dabei bedeutet 100 %, dass alle Spinnmilben abgetötet wurden; 0 % bedeutet, dass keine Spinnmilben abgetötet wurden.

Ctenocephalides felis [3] = assay: Ctenocephalides felis in-vitro contact test with adult cat fleas (coated glass tubes); format: in vivo; details: 48 h, read-out: Wirkung
Method: Für die Beschichtung der Teströhrchen werden zunächst 9 mg Wirkstoff in 1 ml Aceton p.a. gelöst und anschließend mit Aceton p.a. auf die gewünschte Konzentration verdünnt. 250 µl der Lösung werden durch Drehen und Kippen auf einem Rotationsschüttler (2 h Schaukelrotation bei 30 rpm) homogen auf den Innenwänden und dem Boden eines 25ml Glasröhrchens verteilt. Bei 900 ppm Wirkstofflösung und 44,7 cm^2 Innenoberfläche wird bei homogener Verteilung eine Flächendosis von 5 µg/cm^2 erreicht.
Nach Abdampfen des Lösungsmittels werden die Gläschen mit 5-10 adulten Katzenflöhen (Ctenocephalides felis) besetzt, mit einem gelochten Kunststoffdeckel verschlossen und liegend bei Raumtemperatur und Umgebungsfeuchte inkubiert. Nach 48 h wird die Wirksamkeit bestimmt. Hierzu werden die Gläschen aufrecht gestellt und die Flöhe auf den Boden des Gläschens geklopft. Flöhe, die unbeweglich auf dem Boden verbleiben oder sich unkoordiniert bewegen, gelten als tot bzw. angeschlagen.
Eine Substanz zeigt gute Wirkung gegen Ctenocephalides felis, wenn in diesem Test bei einer Aufwandmenge von 5 µg/cm^2 mindestens 80% Wirkung erzielt wurde. Dabei bedeutet 100% Wirkung, dass alle Flöhe angeschlagen oder tot waren. 0% Wirkung bedeutet, dass keine Flöhe geschädigt wurden.

[4] = logP by reversed-phase HPLC (LC-MS), acidic range; format: physicochemical; details: c18 hplc, formic acid/acetonitrile; pH 2,7, 0,1 % aqueous Ameisensäure / Acetonitril, C 18, 55°C; read-out: logP (HCOOH)
Method: as §1, §2

| chromatographic logP [1] | Structure (SMILES) | mortality at 500 g/ha (Spodoptera frugiperda) [%] | mortality at 500 g/ha (Phaedon cochleariae) [%] | mortality at 100 µg/mL (Ctenocephalides felis [2]) [%] | further results |
| --- | --- | --- | --- | --- | --- |
| 3.73 | COC(=O)N(C(=O)C1CC1)c1cc(-c2ccc(OC(F)(F)F)cc2)cc(N(C(=O)OC)C(=O)C2CC2)n1 [I-037, Dimethyl-{4-[4-(trifluormethoxy)phenyl]pyridin-2,6-diyl}bis[(cyclopropylcarbonyl)carbamat]] |  |  |  | mortality at 500 g/ha (Phaedon cochleariae; Aufwandmenge 500g/ha, after 7 days): 100% |
|  | O=C(Nc1cc(-c2ccc(OC(F)(F)F)cc2)cc(NC(=O)C2(c3ccccc3)CC2)n1)C1CC1 [I-008] |  |  |  | mortality at 500 g/ha (Myzus persicae): 90% |
|  | O=C(Nc1cc(-c2ccc(OC(F)(F)F)cc2)cc(NC(=O)C2(C3CC3)CC2)n1)C1CC1 [I-014] | 100 | 100 | 100 | mortality at 100 µg/mL (Lucilia cuprina): 100%; mortality at 100 µg/mL (Musca domestica): 80% |
|  | O=C(Nc1cc(-c2ccc(OC(F)(F)F)cc2)cc(NC(=O)C2CC2)n1)C1CC1 [I-001, N,N'-{4-[4-(Trifluormethoxy)phenyl]pyridin-2,6-diyl}dicyclopropancarboxamid] | 100 | 100 | 100 | mortality at 100 µg/mL (Lucilia cuprina): 95%; inhibition at 20 µg/mL (Meloidogyne incognita): 90% |
|  | CC1=CC1C(=O)Nc1cc(-c2ccc(OC(F)(F)F)cc2)cc(NC(=O)C2CC2)n1 (stereo not drawn) [I-034] |  |  |  | mortality at 500 g/ha (Tetranychus urticae; Aufwandmenge 500g/ha, after 6 days, OP-resistent): 90% |
|  | CC(C)(C)C(=O)Nc1cc(-c2ccc(OC(F)(F)F)cc2)cc(NC(=O)C2CC2)n1 [I-017] | 100 | 100 | 100 | mortality at 500 g/ha (Ctenocephalides felis [3]): 100% |
| 4.98 | FC(F)(F)Oc1ccc(-c2cc(NC(=S)C3CC3)nc(NC(=S)C3CC3)c2)cc1 [I-032, N,N'-{4-[4-(Trifluormethoxy)phenyl]pyridin-2,6-diyl}dicyclopropancarbothioamid] | 100 |  |  |  |
|  | O=C(Nc1cc(-c2ccc(OC(F)(F)F)cc2)cc(NC(=O)C2(C(F)(F)F)CC2)n1)C1CC1 [I-006] | 100 | 83 | 100 | mortality at 100 µg/mL (Musca domestica): 90% |
| 4.44 | O=C(Nc1cc(-c2ccc(OC(F)(F)F)cc2)cc(NC(=S)C2CC2)n1)C1CC1 [I-033, N-{6-[(Cyclopropylcarbonothioyl)amino]-4-[4-(trifluormethoxy)phenyl]pyridin-2-yl}cyclopropancarboxamid] | 100 |  |  |  |
|  | CC(C)(F)C(=O)Nc1cc(-c2ccc(OC(F)(F)F)cc2)cc(NC(=O)C2CC2)n1 [I-015] | 100 | 100 | 100 | mortality at 500 g/ha (Tetranychus urticae): 90% |
|  | O=C(Nc1cc(-c2ccc(C(F)(F)C(F)(F)F)cc2)cc(NC(=O)C2CC2)n1)C1CC1 [I-036] | 100 | 83 | 100 | mortality at 500 g/ha (Tetranychus urticae): 90%; mortality at 100 µg/mL (Lucilia cuprina): 95% |
|  | CC(C)C(=O)Nc1cc(NC(=O)C2CC2)cc(-c2ccc(C(F)(F)C(F)(F)F)c(F)c2)c1 [I-060, N-[3'-Fluor-5-(isobutyrylamino)-4'-(pentafluorethyl)biphenyl-3-yl]cyclopropancarboxamid] | 100 | 100 |  | chromatographic logP [4]: 3.7 |
| 4.06 | O=C(Nc1cc(-c2ccc(C(F)(F)C(F)(F)F)c(F)c2)cc(NC(=O)C2CC2)n1)C1CC1 [I-035, N,N'-{4-[3-Fluor-4-(pentafluorethyl)phenyl]pyridin-2,6-diyl}dicyclopropancarboxamid] | 100 | 100 |  |  |
| 3.32 | CC(C)C(=O)Nc1cc(N)cc(-c2ccc(C(F)(F)C(F)(F)F)c(F)c2)c1 [N-[5-Amino-3'-fluor-4'-(pentafluorethyl)biphenyl-3-yl]-2-methylpropanamid] |  |  |  |  |
| 1.61 | Nc1cc(Br)cc(NC(=O)C2CC2)n1 [N-(6-Amino-4-brompyridin-2-yl)cyclopropancarboxamid] |  |  |  |  |
| 3.88 | O=C(Nc1cc(-c2ccc(OC(F)(F)F)cc2)cc(NC(=O)C2(F)CC2)n1)C1CC1 [I-012, N-{6-[(Cyclopropylcarbonyl)amino]-4-[4-(trifluormethoxy)phenyl]pyridin-2-yl}-1-fluorcyclopropancarboxamid] | 100 | 100 | 95 |  |
| 0.89 | CC1(C)OB(c2cc(NC(=O)C3CC3)nc(NC(=O)C3CC3)c2)OC1(C)C [N,N'-[4-(4,4,5,5-Tetramethyl-1,3,2-dioxaborolan-2-yl)pyridin-2,6-diyl]dicyclopropancarboxamid] |  |  |  |  |
